Here are results for eleven compounds from patent US20180099931A1 (AbbVie S.à.r.l., priority 2016, published 2018).

SMILES strings stand for the structures. Read-outs that look alike come from different tables or passages of the source.

The test has as its target T1, F508delCFTR (Homo sapiens, UniProt P13569, DEL508-508).
T1 construct: expressed in transfected cells; host or cells: CFBE41o- human lung-derived epithelial cells (CFBE4lo-F508delCFTR-HRP), doxycycline-inducible
The experiment in a line: Cell Surface Expression-Horse Radish Peroxidase (CSE-HRP) Assay.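 As to Maximum % activity (with co-corrector): co-corrector and positive control are both the same reference corrector at 2 µM.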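 As to Maximum % activity (without co-corrector): percent of the 2 µM on-plate positive control corrector response above DMSO.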 The class given is cell-based. The conditions noted are these: for Maximum % activity (with co-corrector) / Emax: maximum at any tested concentration, normalized to on-plate positive control; for Emax: read-out: Maximum % activity (without co-corrector).

Where [1] appears, read: test compound without co-corrector, read-out: EC50 (without co-corrector).
The mark [2] stands for this setting: with co-corrector (2 μM of 3-[(2R,4R)-4-({[1-(2,2-difluoro-1,3-benzodioxol-5-yl)cyclopropyl]carbonyl}amino)-7-methoxy-3,4-dihydro-2H-chromen-2-yl]benzoic acid), read-out: EC50 (with co-corrector).
Setting [3] is: test compound without co-corrector.
The mark [4] stands for this setting: with co-corrector (2 μM of 3-[(2R,4R)-4-({[1-(2,2-difluoro-1,3-benzodioxol-5-yl)cyclopropyl]carbonyl}amino)-7-methoxy-3,4-dihydro-2H-chromen-2-yl]benzoic acid).
Where [5] appears, read: CSE-HRP, test compound without co-corrector, read-out: EC50 (without co-corrector).
The mark [6] stands for this setting: CSE-HRP, with co-corrector (2 μM of 3-[(2R,4R)-4-({[1-(2,2-difluoro-1,3-benzodioxol-5-yl)cyclopropyl]carbonyl}amino)-7-methoxy-3,4-dihydro-2H-chromen-2-yl]benzoic acid), read-out: EC50 (with co-corrector).
Where [7] appears, read: CSE-HRP, with co-corrector (2 μM).

T1 sequence (P13569 with tags, fused parts or gaps DEL508-508): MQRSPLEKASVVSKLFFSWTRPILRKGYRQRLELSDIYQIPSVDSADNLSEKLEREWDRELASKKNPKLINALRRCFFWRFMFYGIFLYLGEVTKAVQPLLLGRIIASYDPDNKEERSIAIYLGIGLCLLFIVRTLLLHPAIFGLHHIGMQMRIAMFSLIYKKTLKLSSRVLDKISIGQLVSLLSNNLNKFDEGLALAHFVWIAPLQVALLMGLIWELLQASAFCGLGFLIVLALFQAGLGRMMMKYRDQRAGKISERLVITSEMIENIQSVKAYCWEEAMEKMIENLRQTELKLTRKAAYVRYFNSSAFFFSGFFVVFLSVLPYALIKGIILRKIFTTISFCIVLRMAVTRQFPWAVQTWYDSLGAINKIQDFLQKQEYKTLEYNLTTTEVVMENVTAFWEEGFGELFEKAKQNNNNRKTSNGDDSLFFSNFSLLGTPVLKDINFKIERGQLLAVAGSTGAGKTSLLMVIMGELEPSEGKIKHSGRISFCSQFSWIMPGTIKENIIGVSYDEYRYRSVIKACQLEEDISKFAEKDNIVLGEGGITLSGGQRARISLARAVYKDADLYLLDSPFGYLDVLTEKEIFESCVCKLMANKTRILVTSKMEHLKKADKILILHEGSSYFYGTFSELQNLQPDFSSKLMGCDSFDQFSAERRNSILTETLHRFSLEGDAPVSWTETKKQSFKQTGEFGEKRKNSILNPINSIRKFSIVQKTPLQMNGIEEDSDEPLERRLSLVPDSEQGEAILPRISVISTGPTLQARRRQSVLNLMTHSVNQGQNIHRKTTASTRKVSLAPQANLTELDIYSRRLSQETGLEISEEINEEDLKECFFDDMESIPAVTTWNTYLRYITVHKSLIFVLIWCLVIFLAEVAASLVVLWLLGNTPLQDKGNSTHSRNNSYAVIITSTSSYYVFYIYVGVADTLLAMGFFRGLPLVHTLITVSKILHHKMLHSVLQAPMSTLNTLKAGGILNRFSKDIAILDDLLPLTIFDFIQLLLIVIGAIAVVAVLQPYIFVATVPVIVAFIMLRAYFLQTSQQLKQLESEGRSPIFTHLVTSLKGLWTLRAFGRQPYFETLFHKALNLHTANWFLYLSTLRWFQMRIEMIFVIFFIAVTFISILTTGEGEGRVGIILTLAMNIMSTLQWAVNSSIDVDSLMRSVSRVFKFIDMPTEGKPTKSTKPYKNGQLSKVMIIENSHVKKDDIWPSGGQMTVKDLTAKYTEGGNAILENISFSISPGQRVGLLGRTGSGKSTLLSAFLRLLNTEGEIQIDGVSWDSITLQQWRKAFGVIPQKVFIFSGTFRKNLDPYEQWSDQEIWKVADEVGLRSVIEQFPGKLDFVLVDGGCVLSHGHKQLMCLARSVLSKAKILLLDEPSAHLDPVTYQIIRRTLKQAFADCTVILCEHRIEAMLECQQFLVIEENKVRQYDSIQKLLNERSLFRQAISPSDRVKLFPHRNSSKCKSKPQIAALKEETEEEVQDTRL

For `COc1cc(C(F)(F)F)ccc1CN[C@@H]1[C@@H](C(C)(C)C)[C@H](C(=O)O)N(C(=O)C2C3COCC32)[C@@H]1c1ccccc1N(C)C` (mixture of isomers) [Example I-24], the EC50 fell in the range of 1000 to 10000 nM under setting [1] and 1000 to 10000 nM under setting [2]. The “Maximum % activity (with co-corrector)” value (with co-corrector (2 μM)) was “+++ (≥350)”. Where the note is “without co-corrector”, the Emax is > 200%.
On to `COc1cc2c(cc1CN[C@H]1[C@H](C(C)(C)C)[C@@H](C(=O)O)N(C(=O)OC(C)C)[C@H]1c1cccnc1OC(C)C)CCC2` [II-574], for which the Emax under setting [3] is > 200%. Further, the EC50 under setting [1] is 1000 to 10000 nM and the EC50 under setting [2] fell in the range of 1000 to 10000 nM. The “Maximum % activity (with co-corrector)” value under setting [4] is on record as “+++ (≥350)”.
Take `COc1ccc(C(C)(C)C)cc1CN[C@H]1[C@H](C(C)(C)C)[C@@H](C(=O)O)N(C(=O)C2C3C2[C@H]2CC[C@@H]3C2)[C@H]1c1ccccc1` (some centres unmarked) [III-192]: the Emax under setting [3] was > 200%. Besides, the EC50 runs as follows: under setting [1], < 1000 nM; under setting [2], < 1000 nM. The “Maximum % activity (with co-corrector)” value (with co-corrector (2 μM)) was “+++ (≥350)”.
Take `COc1cccc([C@@H]2[C@H](NCc3ccccc3OC(F)F)[C@@H](C(C)(C)C)[C@H](C(=O)O)N2C(=O)C2CCCCO2)n1` (mixture of isomers) [Example I-18]: the EC50 lay in the range of 1000 to 10000 nM under setting [1] and 1000 to 10000 nM under setting [2]. The “Maximum % activity (with co-corrector)” value (with co-corrector (2 μM)) is reported as “+++ (≥350)”. The Emax (without co-corrector) was < 100%.
Regarding `COc1ccc(C23CC(C2)C3)cc1CN[C@H]1[C@H](C(C)(C)C)[C@@H](C(=O)O)N(C(=O)OC(C)C)[C@H]1c1cccnc1N(C)C` [Example 64, (2S,3S,4S,5S)-4-({[5-(bicyclo[1.1.1]pentan-1-yl)-2-methoxyphenyl]methyl}amino)-3-tert-butyl-5-[2-(dimethylamino)pyridin-3-yl]-1-{[(propan-2-yl)oxy]carbonyl}pyrrolidine-2-carboxylic acid], the half-maximal effective concentration (EC50) reads like this: under setting [1], 1000 to 10000 nM; under setting [2], 1000 to 10000 nM. Besides, under “with co-corrector (2 μM)”, the “Maximum % activity (with co-corrector)” value is “+++ (≥350)”. Under “without co-corrector”, the Emax is > 200%.
`COc1cc(C(F)(F)F)ccc1CN[C@@H]1[C@@H](C(C)(C)C)[C@H](C(=O)O)N(C(=O)C(C)c2ccccc2)[C@@H]1c1ccccc1` (single isomer, unassigned) [III-112]: the Emax under setting [3] is < 100%. The concentration giving a half-maximal response (EC50) lay within 1000 to 10000 nM under setting [1] and 1000 to 10000 nM under setting [2]. Moreover, the “Maximum % activity (with co-corrector)” value (with co-corrector (2 μM)) is “++ (≥150 and <350)”.
For `COc1ccc(C(C)(C)C)cc1CN[C@H]1[C@H](C(C)(C)C)[C@@H](C(=O)O)N(C(=O)C2OCCc3ccccc32)[C@H]1c1ccccc1` (some centres unmarked) [II-165], the EC50 runs as follows: under setting [5], 1000 to 10000 nM; under setting [6], < 1000 nM. Further, under setting [7], the “Maximum % activity (with co-corrector)” value was “+++ (≥350)”. For the same compound, the Emax (CSE-HRP, without co-corrector) is > 200%.
The like results for `COc1ccc(C(C)(C)C)cc1CN[C@H]1[C@H](C(C)(C)C)[C@@H](C(=O)O)N(C(=O)CC2CCC(F)(F)CC2)[C@H]1c1ccccc1` [II-188] were, in that order, 1000 to 10000 nM, 1000 to 10000 nM, “+++ (≥350)” and > 200%.
With `Cn1c(=O)c2c(N[C@H]3[C@H](C(C)(C)C)[C@@H](C(=O)O)N(C(=O)C4CCCCC4)[C@H]3c3ccccc3)nccc2n(C)c1=O` [III-157], the Emax under setting [3] is < 100%. Further, the EC50 reads like this: under setting [1], > 10000 nM; under setting [2], 1000 to 10000 nM. In addition, the “Maximum % activity (with co-corrector)” value (with co-corrector (2 μM)) was “++ (≥150 and <350)”.
In the case of `COc1ccc(C(C)(C)C)cc1CN[C@H]1[C@H](C(C)(C)C)[C@@H](C(=O)O)N(C(=O)C2Cc3ccccc3CO2)[C@H]1c1cccnc1N(C)C` (single isomer, unassigned) [II-480], the Emax under setting [3] was < 100%. Also, the half-maximal effective concentration (EC50) runs as follows: under setting [1], 1000 to 10000 nM; under setting [2], 1000 to 10000 nM. In addition, the “Maximum % activity (with co-corrector)” value under setting [4] is listed as “+++ (≥350)”.
As to `COc1ccc(-c2ccccc2C)cc1CN[C@H]1[C@H](C(C)(C)C)[C@@H](C(=O)O)N(C(=O)C2CCCCC2)[C@H]1c1ccccc1` [II-279], the EC50 under setting [5] is < 1000 nM and the EC50 under setting [6] was < 1000 nM. Besides, under setting [7], the “Maximum % activity (with co-corrector)” value was “+++ (≥350)”. Further, the Emax (CSE-HRP, without co-corrector) is > 200%.
